From patent publication US7956216B2, “Alpha-helical mimetics” (The Walter and Eliza Hall Institute of Medical Research, priority 2006, dated 2011)
pIC50: −log10 of the molar value. Read-outs that look alike come from different tables or passages of the source.

How the values were obtained:
GST tagged Mcl-1 protein = GST tagged Mcl-1 protein (Homo sapiens, UniProt Q07820); test: Alphascreen GST competition assay, Mcl-1 vs biotinylated Bak BH3 peptide; conditions: competition with biotinylated Bak BH3 peptide (4.0 nM), Mcl-1 0.4 nM; n.b. = not binding in the assay conditions
[1] = molecular target: T1, GST tagged Bcl-xL ΔC25 protein (Homo sapiens, UniProt Q07817); test: Alphascreen GST competition assay, Bcl-xL vs biotinylated Bim BH3-26 peptide; conditions: competition with biotinylated Bim BH3-26 peptide (5.0 nM), Bcl-xL 0.6 nM, n.b. = not binding in the assay conditions; for pIC50: read-out: Bcl-xLΔ25 IC50
T1 construct: GST tagged Bcl-xL ΔC25 protein

[2] = molecular target: T2, GST tagged Bclw ΔC29 protein (Homo sapiens, UniProt Q92843); test: Alphascreen GST competition assay, Bcl-w vs biotinylated Bim BH3-26 peptide; format: binding; conditions: for pIC50: read-out: Bcl-wΔ29 IC50
T2 construct: GST tagged Bclw ΔC29 protein
T2 sequence (Q92843 1-164 limits assumed): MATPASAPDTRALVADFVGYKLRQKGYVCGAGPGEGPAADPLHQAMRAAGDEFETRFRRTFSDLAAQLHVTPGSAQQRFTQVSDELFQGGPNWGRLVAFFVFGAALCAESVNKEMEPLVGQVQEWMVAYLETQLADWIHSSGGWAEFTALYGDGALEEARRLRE

[3] = competition with biotinylated Bim BH3-26 peptide (3.0 nM), Bcl-w 0.05 nM, n.b. = not binding in the assay conditions
[4] = footnote a: tested in a separate experiment

GST tagged Mcl-1 protein, sequence (Q07820 whole entry): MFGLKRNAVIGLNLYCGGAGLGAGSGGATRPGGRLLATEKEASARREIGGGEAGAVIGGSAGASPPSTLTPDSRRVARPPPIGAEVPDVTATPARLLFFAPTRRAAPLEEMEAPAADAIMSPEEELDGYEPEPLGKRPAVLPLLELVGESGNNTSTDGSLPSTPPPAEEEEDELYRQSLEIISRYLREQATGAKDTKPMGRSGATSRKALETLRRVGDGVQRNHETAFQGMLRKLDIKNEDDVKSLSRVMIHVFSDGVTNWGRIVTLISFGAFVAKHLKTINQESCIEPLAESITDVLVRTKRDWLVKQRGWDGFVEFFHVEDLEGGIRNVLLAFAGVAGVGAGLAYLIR
T1 sequence (Q07817 1-208 limits assumed): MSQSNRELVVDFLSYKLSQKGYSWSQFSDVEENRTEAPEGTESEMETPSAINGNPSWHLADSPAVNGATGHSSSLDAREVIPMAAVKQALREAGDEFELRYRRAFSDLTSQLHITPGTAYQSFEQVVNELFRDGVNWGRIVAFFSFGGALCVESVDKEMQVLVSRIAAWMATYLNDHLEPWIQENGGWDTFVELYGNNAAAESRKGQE

SMILES: CCCN(C(=O)N[C@@H](CSCc1ccccc1)C(=O)O)C(=O)c1ccc(/C=C/c2ccccc2)cc1 [(86)]
- Mcl-1 IC50 (μM) (GST tagged Mcl-1 protein): n.b.^b

SMILES: CCCN(C(=O)N[C@@H](CSCc1ccc(OC)cc1)C(=O)O)C(=O)c1cccc(C#Cc2ccccc2)c1 [(115)]
- pIC50 [1]: 4.49

SMILES: CCCN(C(=O)CCCc1ccccc1)C(=O)N[C@@H](CSCc1ccccc1)C(=O)O [(106)]
- pIC50 (GST tagged Mcl-1 protein): 3.60
- pIC50 [2, 3]: 3.99
- pIC50 [1]: 3.74

SMILES: CCCN(C(=O)N[C@@H](CSCC(C)C)C(=O)O)C(=O)c1cccc(C#Cc2cccc(F)c2)c1 [(140)]
- Mcl-1 IC50 (μM) (GST tagged Mcl-1 protein): n.b.^b

SMILES: CCCN(C(=O)N[C@@H](CSCC(C)C)C(=O)O)C(=O)c1cccc(C#Cc2ccccc2OC)c1 [(146)]
- Mcl-1 IC50 (μM) (GST tagged Mcl-1 protein): n.b.^b

SMILES: O=C(O)[C@H](CSCc1ccccc1)NC(=O)N(Cc1ccc(Cl)c(Cl)c1)C(=O)c1ccc(-c2ccccc2)cc1 [(85)]
- Bcl-xLΔ25 IC50 (μM) [1]: n.b.^b

SMILES: CCCN(C(=O)N[C@@H](CSCC(C)C)C(=O)O)C(=O)c1cccc(C#Cc2ccncc2)c1 [(150)]
- Bcl-xLΔ25 IC50 (μM) [1]: n.b.^b

SMILES: CCCN(C(=O)N[C@@H](CSCC(C)C)C(=O)NS(=O)(=O)c1cccc(-c2ccccc2)c1)C(=O)c1cccc(C#Cc2ccccc2)c1 [(155)]
- pIC50 [1]: 4.28

SMILES: CCCN(C(=O)N[C@@H](CSCc1ccccc1)C(=O)O)C(=O)c1cccc(C#Cc2ccc(Br)cc2)c1 [(134)]
- pIC50 (GST tagged Mcl-1 protein): 3.74
- pIC50 [1]: 4.29

SMILES: O=C([C@H](CSCc1ccccc1)NC(=O)N(Cc1cccc2ccccc12)C(=O)c1cccc(-c2ccc(F)cc2)c1)N1CCOCC1 [(72)]
- Bcl-wΔ29 IC50 (μM) [2, 3]: n.b.^b

SMILES: CC(C)CCN(C(=O)N[C@@H](CSCc1ccccc1)C(=O)O)C(=O)c1ccc(-c2ccccc2)cc1 [(42)]
- pIC50 [2, 3]: 4.31

SMILES: CCCN(C(=O)N[C@@H](CSCc1ccccc1)C(=O)O)C(=O)c1cccc(CCc2ccccc2)c1 [(88)]
- pIC50 (GST tagged Mcl-1 protein): 3.81
- pIC50 [2, 3]: 4.31
- pIC50 [1]: 4.29

SMILES: CCCN(C(=O)NCC(=O)O)C(=O)c1cccc(-c2ccccc2)c1 [(71)]
- Bcl-wΔ29 IC50 (μM) [2, 3]: n.b.^b

SMILES: O=C(O)[C@H](CSCc1ccccc1)NC(=O)N(C(=O)c1cccc(-c2ccccc2)c1)C1CCCCC1 [(10)]
- pIC50 [2, 4]: 4.59

SMILES: CCCN(C(=O)N[C@@H](CSCCCc1ccccc1)C(=O)O)C(=O)c1cccc(C#Cc2ccccc2)c1 [(95)]
- pIC50 (GST tagged Mcl-1 protein): 4.03
- pIC50 [2, 3]: 4.46
- pIC50 [1]: 4.14

SMILES: CCCN(C(=O)N[C@@H](CSCc1ccccc1)C(=O)O)C(=O)c1cccc(/C=C/c2ccccc2)c1 [(87)]
- pIC50 (GST tagged Mcl-1 protein): 3.79
- pIC50 [2, 3]: 4.00
- pIC50 [1]: 3.82

SMILES: CCCN(C(=O)N[C@@H](CSCC(C)CC)C(=O)O)C(=O)c1cccc(C#Cc2ccccc2)c1 (stereo partly shown) [(125)]
- pIC50 [1]: 4.36

SMILES: O=C(O)[C@H](CSCc1ccccc1)NC(=O)N(CC1CCCCC1)C(=O)c1cccc(-c2ccccc2)c1 [(9)]
- pIC50 [2, 4]: 4.85

SMILES: CCCN(C(=O)N[C@@H](CSC(C)C)C(=O)O)C(=O)c1cccc(C#Cc2ccccc2)c1 [(92)]
- Mcl-1 IC50 (μM) (GST tagged Mcl-1 protein): n.b.^b
